pIC50: −log10 of the molar value.
Test system: PDC 899932-113-R3-J6 complex spheroid viability
Assay: Anticancer human tumor 899932-113-R3-J6-PDC patient-derived melanoma cell line growth inhibition [RAS]
Conditions: for pIC50: curve of first compound; for viability, T/C: stronger effect = lower value
Source text: RAS pathway inhibitors in Combinations in Complex Spheroids
A high-throughput screen of multi-cell type tumor spheroids was designed to identify active combinations of RAS pathway inhibitors and targeted small molecules. Complex spheroids include a stromal component modeled by human endothelial cells (HUVEC) and fibroblasts modeled by human mesenchymal stem cells (MSCs). The concentration ranges selected for each drug and investigational agent were based upon clinically achievable concentrations if the clinical Cmax of the agent was known.
Compounds. The drugs and investigational agents: abemaciclib (NSC768073), cobimetinib (NSC768068), divarasib (GDC6063, NSC841802), docetaxel (NSC628503), GDC-1971 (RLY-1971, NSC841576), gemcitabine (NSC613327), inavolisib (NSC800729), ipatasertib (NSC767898), KB-0742 (NSC834161), MRTX-1133 (NSC836407), osimertinib (NSC779217), RMC-4630 (NSC839698), RMC-6236 (NSC851965), RMC-6291 (NSC852671), Ro-3306 (NSC812927), sapanisertib (NSC764658), SN-38 (NSC673596), staurosporine (NSC755774), SY5609 (NSC837396), and tovorafenib (DAY101, NSC766906), were obtained from the National Cancer Institute (NCI) Developmental Therapeutics Program Chemical Repository. The FDA-approved anticancer drug set is available from the NCI Developmental Therapeutics Program. […] The stock solutions were prepared in dimethyl sulfoxide (DMSO, Sigma-Aldrich, St. Louis, MO, cat. D2650) at 800-fold the tested concentration and stored at -70 degrees C prior to their use. All drugs and investigational agents were tested over a range starting from a high concentration at or near the clinical Cmax and decreasing in half-log increments. If the clinical Cmax for an agent had not been determined, the highest concentration tested was 10 microM.
Cell Culture. All cells were maintained in an incubator at 37 degrees C and 5% CO2 with 95% humidity. The PDC lines were cultured according to standard operating procedures established by the NCI PDMR. All PDCs were thawed and cultured in Matrigel-coated flasks prepared with a working solution of 1X Ham's F-12 nutrient mix, without supplementation (Invitrogen, Waltham, MA, cat. 11765054), 100 U/mL penicillin-streptomycin (Invitrogen, cat. 15140122), and 2.5% Matrigel (Corning Inc., Corning, NY, cat. 354248) for the first three passages. The 362531-283-R-J2-PDC and 782815-120-R-J1-PDC lines were cultured in 6C/Colon 1B media, which includes advanced DMEM/F-12 (Thermo Fisher Scientific, cat. 12634028), 10 mM HEPES (Thermo Fisher Scientific, cat. 15630080), 1X GlutaMAX supplement (Thermo Fisher Scientific, cat. 35050061), 0.1 mg/mL primocin (InvivoGen, San Diego, CA, cat. ant-pm-2), 10% defined fetal bovine serum, heat inactivated (HyClone Laboratories Inc., Logan, UT, cat. SH30070.03HI), 50% L-WRN conditioned media (ATCC, cat. CRL-3276), 1.25 mM N-Acetyl-L-cysteine (Sigma-Aldrich, cat. A9165), 10 mM nicotinamide (Sigma-Aldrich, cat. N0636), 1X B-27 supplement (Thermo Fisher Scientific, cat. 17504044), 1X N-2 supplement (Thermo Fisher Scientific, cat. 17502048), 50 ng/mL human EGF (Thermo Fisher Scientific, cat. PHG0311), and 10 microM Y-27632 dihydrochloride (Tocris Bioscience, cat. 1254). The K12877-001-R-J1-PDC line was cultured in 6I media, which includes all 6C/Colon 1B media plus 10 ng/mL human FGF-10 (PeproTech, cat. 100-26), 1 ng/mL human FGF-2 (PeproTech, cat. 100-18B), 1 µM prostaglandin E2 (Tocris Bioscience, cat. 2296), […] hydrocortisone (Sigma-Aldrich, cat. H4001), and […] bovine insulin (Sigma-Aldrich, cat. I6634). The K86415-001-R-J1-PDC line was cultured in 6D media, which includes all 6C/Colon 1B media components minus the L-WRN conditioned media. The 485176-168-R4-J1-PDC was cultured in PANC media, which includes all 6C/Colon 1B media plus 100 ng/mL human FGF-10 (PeproTech, cat. 100-26), 500 nM SB-431542 (Selleckchem, cat. S1067), and 10 nM gastrin (Tocris Bioscience, cat. 3006). […]

[1] = second compound 0.000949 µM, first compound 0.0316 µM
[2] = second compound 0.000949 µM, first compound 0.1 µM
[3] = second compound 0.000949 µM, first compound 0.316 µM
[4] = second compound 0.000949 µM, first compound 1 µM
[5] = second compound 0.000949 µM, first compound 3.16 µM
[6] = second compound 0.000949 µM, first compound 10 µM
[7] = second compound 0.003 µM, first compound 0.0316 µM
[8] = second compound 0.003 µM, first compound 0.1 µM
[9] = second compound 0.003 µM, first compound 0.316 µM
[10] = second compound 0.003 µM, first compound 1 µM
[11] = second compound 0.003 µM, first compound 3.16 µM
[12] = second compound 0.003 µM, first compound 10 µM
[13] = second compound 0.00949 µM, first compound 0.0316 µM
[14] = second compound 0.00949 µM, first compound 0.1 µM
[15] = second compound 0.00949 µM, first compound 0.316 µM
[16] = second compound 0.00949 µM, first compound 1 µM
[17] = second compound 0.00949 µM, first compound 3.16 µM
[18] = second compound 0.00949 µM, first compound 10 µM
[19] = second compound 0.03 µM, first compound 0.0316 µM
[20] = second compound 0.03 µM, first compound 0.1 µM
[21] = second compound 0.03 µM, first compound 0.316 µM
[22] = second compound 0.03 µM, first compound 1 µM
[23] = second compound 0.03 µM, first compound 3.16 µM
[24] = second compound 0.03 µM, first compound 10 µM
[25] = second compound 0.0949 µM, first compound 0.0316 µM
[26] = second compound 0.0949 µM, first compound 0.1 µM
[27] = second compound 0.0949 µM, first compound 0.316 µM
[28] = second compound 0.0949 µM, first compound 1 µM
[29] = second compound 0.0949 µM, first compound 3.16 µM
[30] = second compound 0.0949 µM, first compound 10 µM
[31] = second compound 0.3 µM, first compound 0.0316 µM
[32] = second compound 0.3 µM, first compound 0.1 µM
[33] = second compound 0.3 µM, first compound 0.316 µM
[34] = second compound 0.3 µM, first compound 1 µM
[35] = second compound 0.3 µM, first compound 3.16 µM
[36] = second compound 0.3 µM, first compound 10 µM
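For viability, T/C in this document: spheroids exposed to agents for seven days before readout; 100% = DMSO vehicle control wells.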

**Q.** Which results are given for CC(=O)OC12COC1CC(O)C1(C)C(=O)C(O)C3=C(C)C(OC(=O)C(O)C(NC(=O)OC(C)(C)C)c4ccccc4)CC(O)(C(OC(=O)c4ccccc4)C21)C3(C)C (centres undefined) + CCn1c(-c2cccnc2C(C)OC)c2c3cc(ccc31)N1CCOC(CC(NC(=O)C(C(C)C)N(C)C(=O)C3(F)CCN(C(=O)C#CC(C)(C)N(C)C)CC3)C(=O)N3CCCC(N3)C(=O)OCC(C)(C)C2)C1?
**A.** pIC50 (second compound 0.000949 µM): > 7.50; pIC50 (second compound 0.003 µM): > 7.50; pIC50 (second compound 0.00949 µM): > 7.50; pIC50 (second compound 0.03 µM): > 7.50; pIC50 (second compound 0.0949 µM): > 7.50; pIC50 (second compound 0.3 µM): > 7.50; viability, T/C [1]: 31.4%; viability, T/C [2]: 34.3%; viability, T/C [3]: 33%; viability, T/C [4]: 45.6%; viability, T/C [5]: 60.8%; viability, T/C [6]: 70.1%; viability, T/C [7]: 29.2%; viability, T/C [8]: 37.1%; viability, T/C [9]: 36.8%; viability, T/C [10]: 39.7%; viability, T/C [11]: 58.7%; viability, T/C [12]: 68.9%; viability, T/C [13]: 33.8%; viability, T/C [14]: 36.6%; viability, T/C [15]: 35.1%; viability, T/C [16]: 48.4%; viability, T/C [17]: 61%; viability, T/C [18]: 61%; viability, T/C [19]: 34.9%; viability, T/C [20]: 38%; viability, T/C [21]: 32.9%; viability, T/C [22]: 41.7%; viability, T/C [23]: 67.3%; viability, T/C [24]: 67.4%; viability, T/C [25]: 34.8%; viability, T/C [26]: 38.4%; viability, T/C [27]: 37.3%; viability, T/C [28]: 52.1%; viability, T/C [29]: 59.2%; viability, T/C [30]: 65.5%; viability, T/C [31]: 28.9%; viability, T/C [32]: 39.4%; viability, T/C [33]: 40.8%; viability, T/C [34]: 44.5%; viability, T/C [35]: 64.3%; viability, T/C [36]: 63.1%

**Q.** With NC1c2ccccc2OC12CCN(c1cnc3c(N4CCCc5ncccc54)n[nH]c3n1)CC2 (centres undefined) + CCn1c(-c2cc(N3CCN(C)CC3)cnc2C(C)OC)c2c3cc(ccc31)-c1csc(n1)CC(NC(=O)C1CC1C)C(=O)N1CCCC(N1)C(=O)OCC(C)(C)C2 as the compound, how does the pIC50 (second compound 0.000949 µM) read?
**A.** < 5.00

**Q.** And the pIC50 (second compound 0.003 µM)?
**A.** > 7.50

**Q.** What about the pIC50 (second compound 0.00949 µM) of the same compound?
**A.** > 7.50

**Q.** And the pIC50 (second compound 0.03 µM)?
**A.** > 7.50

**Q.** And the pIC50 (second compound 0.0949 µM)?
**A.** > 7.50

**Q.** And the pIC50 (second compound 0.3 µM)?
**A.** > 7.50

**Q.** What about the viability, T/C [1] of the same compound?
**A.** 72.7%

**Q.** What about the viability, T/C [2] of the same compound?
**A.** 64.5%

**Q.** And the viability, T/C [3]?
**A.** 79.9%

**Q.** What about the viability, T/C [4] of the same compound?
**A.** 73.4%

**Q.** And the viability, T/C [5]?
**A.** 81%

**Q.** And the viability, T/C [6]?
**A.** 70.2%

**Q.** And the viability, T/C [7]?
**A.** 31.8%

**Q.** What about the viability, T/C [8] of the same compound?
**A.** 27.1%

**Q.** What about the viability, T/C [9] of the same compound?
**A.** 34.3%

**Q.** And the viability, T/C [10]?
**A.** 38%

**Q.** And the viability, T/C [11]?
**A.** 38.2%

**Q.** And the viability, T/C [12]?
**A.** 12.4%

**Q.** And the viability, T/C [13]?
**A.** 2.82%

**Q.** And the viability, T/C [14]?
**A.** 2.7%

**Q.** What about the viability, T/C [15] of the same compound?
**A.** 2%

**Q.** What about the viability, T/C [16] of the same compound?
**A.** 2.89%

**Q.** What about the viability, T/C [17] of the same compound?
**A.** 3.55%

**Q.** What about the viability, T/C [18] of the same compound?
**A.** 4.09%

**Q.** And the viability, T/C [19]?
**A.** 2.17%

**Q.** What about the viability, T/C [20] of the same compound?
**A.** 1.67%

**Q.** What about the viability, T/C [21] of the same compound?
**A.** 1.01%

**Q.** What about the viability, T/C [22] of the same compound?
**A.** 0.93%

**Q.** And the viability, T/C [23]?
**A.** 0.99%

**Q.** And the viability, T/C [24]?
**A.** 2.33%

**Q.** What about the viability, T/C [25] of the same compound?
**A.** 1.84%

**Q.** What about the viability, T/C [26] of the same compound?
**A.** 1.61%

**Q.** And the viability, T/C [27]?
**A.** 0.9%

**Q.** And the viability, T/C [28]?
**A.** 0.51%

**Q.** And the viability, T/C [29]?
**A.** 0.3%

**Q.** What about the viability, T/C [30] of the same compound?
**A.** 1.08%

**Q.** What about the viability, T/C [31] of the same compound?
**A.** 1.87%

**Q.** What about the viability, T/C [32] of the same compound?
**A.** 2.01%

**Q.** And the viability, T/C [33]?
**A.** 1.11%

**Q.** And the viability, T/C [34]?
**A.** 0.31%

**Q.** And the viability, T/C [35]?
**A.** 0.4%

**Q.** What about the viability, T/C [36] of the same compound?
**A.** 0.35%

— PubChem BioAssay AID2060895 (Molecular Pharmacology Branch, DTP, NCI, 2025)
